Measurements taken from ChEMBL document CHEMBL1142723, “Discovery of a potent, selective, and efficacious class of reversible alpha-ketoheterocycle inhibitors of fatty acid amide hydrolase effective as analgesics” (J Med Chem, 2005).

Columns and labels:
[1] = target: T1, Fatty-acid amide hydrolase 1 (Rattus norvegicus, UniProt P97612); test: Inhibitory constant determined against recombinant Fatty-acid amide hydrolase from rat expressed in Escherichia coli
T1 sequence (P97612 whole entry): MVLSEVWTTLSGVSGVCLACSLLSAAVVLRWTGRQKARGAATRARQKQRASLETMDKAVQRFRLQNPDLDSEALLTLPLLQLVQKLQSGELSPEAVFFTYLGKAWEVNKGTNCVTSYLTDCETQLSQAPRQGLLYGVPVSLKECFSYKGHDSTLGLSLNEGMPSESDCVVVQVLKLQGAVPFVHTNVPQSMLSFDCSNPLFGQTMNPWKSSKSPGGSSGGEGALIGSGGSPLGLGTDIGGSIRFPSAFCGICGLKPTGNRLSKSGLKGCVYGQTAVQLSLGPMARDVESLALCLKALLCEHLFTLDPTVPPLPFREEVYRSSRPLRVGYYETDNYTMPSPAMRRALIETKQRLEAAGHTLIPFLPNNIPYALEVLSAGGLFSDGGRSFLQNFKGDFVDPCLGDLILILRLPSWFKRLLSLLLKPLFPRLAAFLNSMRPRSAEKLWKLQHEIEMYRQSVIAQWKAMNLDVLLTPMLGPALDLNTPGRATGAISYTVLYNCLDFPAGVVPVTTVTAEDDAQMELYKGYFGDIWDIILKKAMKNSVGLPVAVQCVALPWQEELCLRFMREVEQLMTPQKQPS

[2] = target: T2, Fatty-acid amide hydrolase 1 (Homo sapiens, UniProt O00519); test: Inhibitory concentration against Fatty-acid amide hydrolase
T2 sequence (O00519 whole entry): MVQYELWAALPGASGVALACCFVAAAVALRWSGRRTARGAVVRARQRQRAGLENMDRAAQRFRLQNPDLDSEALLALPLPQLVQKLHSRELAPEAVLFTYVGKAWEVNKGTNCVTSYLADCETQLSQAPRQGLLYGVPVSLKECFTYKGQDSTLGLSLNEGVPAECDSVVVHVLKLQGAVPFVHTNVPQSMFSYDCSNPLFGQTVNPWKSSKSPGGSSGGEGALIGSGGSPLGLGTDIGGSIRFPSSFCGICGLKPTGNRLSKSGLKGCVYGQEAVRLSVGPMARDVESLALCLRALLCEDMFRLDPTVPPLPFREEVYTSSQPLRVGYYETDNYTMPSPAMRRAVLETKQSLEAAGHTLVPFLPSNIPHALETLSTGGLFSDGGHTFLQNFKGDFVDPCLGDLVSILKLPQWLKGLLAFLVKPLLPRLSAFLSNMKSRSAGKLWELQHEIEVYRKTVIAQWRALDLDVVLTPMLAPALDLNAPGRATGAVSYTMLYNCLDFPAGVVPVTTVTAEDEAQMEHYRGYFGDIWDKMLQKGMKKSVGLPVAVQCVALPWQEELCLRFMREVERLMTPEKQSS

Liver carboxylesterase 1 = target: T3, Liver carboxylesterase 1 (Homo sapiens, UniProt P23141); test: Inhibitory concentration against Triacylglycerol hydrolase
T3 sequence (P23141 whole entry): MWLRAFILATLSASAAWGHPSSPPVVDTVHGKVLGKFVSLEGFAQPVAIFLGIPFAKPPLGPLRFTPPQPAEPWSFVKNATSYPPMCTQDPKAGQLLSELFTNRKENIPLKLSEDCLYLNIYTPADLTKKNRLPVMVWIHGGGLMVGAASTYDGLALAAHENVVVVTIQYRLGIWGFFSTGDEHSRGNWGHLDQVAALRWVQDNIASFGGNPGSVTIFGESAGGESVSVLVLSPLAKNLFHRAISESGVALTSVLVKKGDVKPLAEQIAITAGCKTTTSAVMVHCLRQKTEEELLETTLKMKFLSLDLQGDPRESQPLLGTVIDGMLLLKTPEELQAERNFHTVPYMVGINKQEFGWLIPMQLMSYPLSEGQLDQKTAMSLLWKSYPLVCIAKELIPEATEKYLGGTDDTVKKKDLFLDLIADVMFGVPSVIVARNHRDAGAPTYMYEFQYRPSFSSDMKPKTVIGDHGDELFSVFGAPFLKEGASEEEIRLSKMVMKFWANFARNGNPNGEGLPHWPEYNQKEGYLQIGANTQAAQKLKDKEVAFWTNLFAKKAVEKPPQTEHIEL

[3] = Inhibitory concentration against KIAA1363 hydrolase
[4] = target: T2, Fatty-acid amide hydrolase 1; test: Inhibitory constant determined against recombinant Fatty-acid amide hydrolase from human expressed in COS-7 cells; assay type: cell-based

Structure (SMILES) | Ki [1] [nM] | other results
CCCC(=O)c1ncc(-c2ccccn2)o1 | 11000 | 
O=C(Cc1ccccc1)C(F)(F)F |  | IC50 [2]: > 100000 nM; IC50 (Liver carboxylesterase 1): 10 nM; IC50 [3]: 10000 nM
O=C(CCCc1ccccc1)c1ncc(-c2ccccn2)o1 | 120 | 
O=C(CCCCCCc1ccccc1)C(F)(F)F |  | IC50 [3]: 200 nM
CCCCCCCCCC(=O)C(F)(F)F |  | IC50 [3]: 400 nM
C[Si](C)(C)C#CCCCCC(=O)c1ncc(-c2ccccn2)o1 | 200 | 
CCCCCCCCCCCCCCCCCC(=O)C(F)(F)F |  | IC50 [3]: 6600 nM
O=C(CCCCCCc1ccccc1)c1ncc(-c2cncnc2)o1 | 22 | 
O=C(Cc1ccccc1)c1ncc(-c2ccccn2)o1 | 17000 | 
O=C(CCCCCc1ccccc1)c1nc2ccccc2o1 |  | IC50 [3]: > 100000 nM
O=C(CCCCCc1ccccc1)c1nc2ncccc2o1 | 0.2 | IC50 [3]: 10000 nM
O=C(CCCCCCc1ccccc1)c1ncc(-c2nccs2)o1 | 5.8 | 
O=C(CCCCc1ccccc1)c1ncc(-c2ccccn2)o1 | 33 | 
C#CCCCCC(=O)c1ncc(-c2ccccn2)o1 | 1300 | 
OC(CCCCCCc1ccccc1)c1ncc(-c2ccccn2)o1 (centres undefined) | 3300 | 
O=C(CCCCCCc1ccccc1)c1ncc(-c2ccncn2)o1 | 2.3 | 
O=C(CCCCCCc1ccccc1)c1ncc(-c2cccnn2)o1 | 5.6 | 
CCCCCCCCCCCC(=O)C(F)(F)F |  | IC50 (Liver carboxylesterase 1): 60 nM; IC50 [3]: 500 nM
O=C(CCCCCCCc1ccccc1)C(F)(F)F |  | IC50 [3]: 200 nM
CCCCCCCC/C=C\CCCCCCCC(=O)c1ncco1 |  | Ki [4]: 45 nM; IC50 [3]: > 100000 nM

Structure (SMILES) | Ki [1] [nM] | other results
CCC(=O)c1ncc(-c2ccccn2)o1 | 48000 | 
OC(CCCCCCc1ccccc1)c1ncc(-c2ncccn2)o1 (centres undefined) | 5900 | 
O=C(CCCCCCc1ccccc1)c1ncc(-c2ccccn2)o1 |  | IC50 [3]: > 100000 nM
O=C(CCCC#Cc1ccccc1)c1ncc(-c2ccccn2)o1 | 21 | 
CCCCCCCC/C=C\CCCCCCCC(=O)c1ncc(-c2ccccn2)o1 |  | IC50 [2]: 150 nM; IC50 (Liver carboxylesterase 1): > 100000 nM; Ki [4]: 10 nM; IC50 [3]: > 100000 nM
O=C(CCCCCCc1ccccc1)c1ncc(-c2ncccn2)o1 | 4.6 | 
CCCCCCCC(=O)C(F)(F)F |  | IC50 [3]: 1500 nM
O=C(CCCCCCCc1ccccc1)c1ncc(-c2ccccn2)o1 | 7.5 | 
O=C(CCCCCc1ccccc1)c1ncc(-c2ccccn2)o1 | 11 | 
O=C(c1ccccc1)C(F)(F)F |  | IC50 [2]: > 100000 nM; IC50 (Liver carboxylesterase 1): 4 nM; IC50 [3]: 10000 nM
CC(=O)c1ncc(-c2ccccn2)o1 | > 100000 | 
c1ccc(CCCCCCCc2ncc(-c3ccccn3)o2)cc1 | 20000 | 
CCCCCCCC/C=C\CCCCCCCC(=O)C(F)(F)F | 80 | IC50 [2]: 4500 nM; IC50 (Liver carboxylesterase 1): 4800 nM; IC50 [3]: 1100 nM
CCCCC(=O)c1ncc(-c2ccccn2)o1 | 3000 | 
O=C(CCc1ccccc1)c1ncc(-c2ccccn2)o1 | 200 | 
O=C(CCCCCc1ccccc1)C(F)(F)F |  | IC50 [3]: 800 nM
O=C(CCCCCCc1ccccc1)c1nc2ncccc2o1 | 0.28 | IC50 [3]: 20000 nM
O=C(CCCCC#Cc1ccccc1)c1ncc(-c2ccccn2)o1 | 20 | 
OC(CCCCCCc1ccccc1)c1ncc(-c2cccnn2)o1 (centres undefined) | 4300 | 
O=C(CCCCCCc1ccccc1)c1ncc(-c2ncco2)o1 | 4.6 | 

Continued, in another order:

Ki [1] [nM] | Structure (SMILES) | other results
56 | CCCCCCCC/C=C\CCCCCCCC(=O)c1ncc(-c2ccncc2)o1 | 
0.14 | CCCCCCCCC#CCCCCCCCC(=O)c1nc2ncccc2o1 | IC50 [2]: 2 nM; IC50 (Liver carboxylesterase 1): 500 nM; IC50 [3]: 20000 nM
16 | CCCCCCCC/C=C\CCCCCCCC(=O)c1ncc(-c2nccs2)o1 | 
3800 | CCCCCCCC/C=C\CCCCCCCC(=O)c1nc(C)c(C)o1 | 
890 | CCCCCCCC/C=C\CCCCCCCC(=O)c1ncc(-c2cccs2)o1 | 
10 | O=C(CCCCCCCCCc1ccccc1)c1ncc(-c2ccccn2)o1 | 
3.3 | CCCCCCCCCCC(=O)c1ncc(-c2ccccn2)o1 | 
7.8 | O=C(CCCCCCCCc1ccccc1)c1ncc(-c2ccccn2)o1 | 
15 | CCCCCCCCC(=O)c1ncc(-c2ccccn2)o1 | 
16 | CCCCCCCC/C=C\CCCCCCCC(=O)c1nc(-c2ccncn2)co1 | 
31 | CCCCCCCC/C=C\CCCCCCCC(=O)c1nc(-c2ccccn2)co1 | 
23 | C#CCCCCCCCC(=O)c1ncc(-c2ccccn2)o1 | 
13200 | CCCCCCCC/C=C\CCCCCCCC(=O)c1ncc(-c2ccsc2)o1 | 
59 | CCCCCCCCCCCCCCCCCC(=O)c1ncc(-c2ccccn2)o1 | 
47 | CCCCCCCC/C=C\CCCCCCCC(=O)c1ncc(-c2nccn2C)o1 | 
5.3 | O=C(CCCCCCc1ccccc1)c1ncc(-c2cnccn2)o1 | 
9 | CCCCCCCCCC(=O)c1ncc(-c2ccccn2)o1 | 
940 | CCCCCC(=O)c1ncc(-c2ccccn2)o1 | 
49 | CCCCCCCC(=O)c1ncc(-c2ccccn2)o1 | 
18 | CCCCCCCC/C=C\CCCCCCCC(=O)c1ncc(-c2cnccn2)o1 | 
320 | CCCCCCCC/C=C\CCCCCCCC(=O)c1ncc(-c2ccccc2)o1 | 

Ki [1] [nM] | Structure (SMILES) | other results
370 | CCCCCCCC/C=C\CCCCCCCC(=O)c1nc2ccccc2o1 | IC50 [3]: > 100000 nM
490 | CCCCCCCC/C=C\CCCCCCCC(=O)c1nc(-c2ccccc2)co1 | 
10 | CCCCCCCCC#CCCCCCCCC(=O)c1ncc(-c2ccccn2)o1 | IC50 [2]: 20 nM; IC50 (Liver carboxylesterase 1): 30000 nM; IC50 [3]: > 100000 nM
10600 | CCCCCCCC/C=C\CCCCCCCC(O)c1ncc(-c2ccccn2)o1 (centres undefined) | 
61 | CCCCCCCC/C=C\CCCCCCCC(=O)c1ncc(-c2cccnc2)o1 | 
21 | CCCCCCCCCCCCCCCC(=O)c1ncc(-c2ccccn2)o1 | 
41 | CCCCCCCC/C=C\CCCCCCCC(=O)c1nc(-c2cccnc2)co1 | 
13 | CCCCCCCCCCCCCC(=O)c1ncc(-c2ccccn2)o1 | 
14 | CCCCCCCC/C=C\CCCCCCCC(=O)c1ncc(-c2cccnn2)o1 | 
2.3 | CCCCCCCC/C=C\CCCCCCCC(=O)c1nc2ncccc2o1 | IC50 [3]: 60000 nM
11 | C=CCCCCCCCC(=O)c1ncc(-c2ccccn2)o1 | 
78 | CCCCCCCC/C=C\CCCCCCCC(=O)c1nc(-c2ccncc2)co1 | 
23200 | CCCCCCCC/C=C\CCCCCCCCc1ncc(-c2ccccn2)o1 | 
8600 | CCCCCCCC/C=C\CCCCCCCC(=O)c1ncc(-c2cccn2C)o1 | 
16 | CCCCCCCC/C=C\CCCCCCCC(=O)c1nc(-c2ncccn2)co1 | 
22 | O=C(CCCCCCCCCCc1ccccc1)c1ncc(-c2ccccn2)o1 | 
> 100000 | CCCCCCCC/C=C\CCCCCCCC(=O)c1nc(-c2ccccc2)c(-c2ccccc2)o1 | 
170 | CCCCCCC(=O)c1ncc(-c2ccccn2)o1 | 
12 | CCCCCCCC/C=C\CCCCCCCC(=O)c1ncc(-c2ncco2)o1 | 
610 | CCCCCCCC/C=C\CCCCCCCC(=O)c1ncc(-c2ccoc2)o1 | 
2.2 | CCCCCCCCCCCC(=O)c1ncc(-c2ccccn2)o1 | 
